Measurements published in patent US20070123546A1, “2-amino-7,8-dihydro-6H-pyrido[4,3-d]pyrimidin-5-ones” (Chiron Corporation, priority 2005, published 2007).

Biological target: His-tagged N-terminal ATP binding domain (amino acid residues 9-236) of HSP90α (Homo sapiens, UniProt P07900)
Test: HSP90 inhibitor binding potency: TRF competition binding assay
Details: competition with biotinylated radicicol
Method in brief: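 Competition against biotinylated radicicol for binding to the His-tagged 9-236 ATP domain of HSP90α: 2 h, room temperature, HEPES/MgCl2/KCl/BSA buffer. Streptavidin capture, then europium-labeled anti-His antibody and enhancement solution; europium counts give IC50.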

| IC50 (Table 2) | IC50 (Table 3) | SMILES |
| --- | --- | --- |
| < 10 µM | – | CCc1nc(N)nc2c1C(=O)N[C@@H](c1ccc(F)cc1-c1cncc(OC)n1)C2 [Compound 82, (R)-2-Amino-4-ethyl-7-[4-fluoro-2-(6-methoxy-pyrazin-2-yl)-phenyl]-7,8-dihydro-6H-pyrido[4,3-d]pyrimidin-5-one] |
| < 10 µM | – | CCOc1nc(-c2cc(F)ccc2[C@H]2Cc3nc(N)ncc3C(=O)N2)cnc1N [Compound 83, (R)-2-Amino-7-[2-(5-amino-6-ethoxy-pyrazin-2-yl)-4-fluoro-phenyl]-7,8-dihydro-6H-pyrido[4,3-d]pyrimidin-5-one] |
| < 10 µM | – | CCc1nc(N)nc2c1C(=O)N[C@@H](c1ccc(F)cc1-c1csc(OC)n1)C2 [Compound 84, (R)-2-Amino-4-ethyl-7-[4-fluoro-2-(2-methoxy-thiazol-4-yl)-pbenyl]-7,8-dihydro-6H-pyrido[4,3-d]pyrimidin-5-one] |
| < 10 µM | – | CCOc1cncc(-c2cc(F)ccc2[C@H]2Cc3nc(N)nc(C)c3C(=O)N2)n1 [Compound 85, (R)-2-Amino-7-[2-(6-ethoxy-pyrazin-2-yl)-4-fluoro-phenyl]-4-methyl-7,8-dihydro-6H-pyrido[4,3-d]pyrimidin-5-one] |
| < 10 µM | – | CCOc1cncc(-c2cc(F)ccc2[C@H]2Cc3nc(N)nc(CC)c3C(=O)N2)n1 [Compound 86, (R)-2-Amino-7-[2-(6-ethoxy-pyrazin-2-yl)-4-fluoro-phenyl]-4-ethyl-7,8-dihydro-6H-pyrido[4,3-d]pyrimidin-5-one] |
| < 10 µM | – | CCOc1cncc(-c2cc(F)ccc2[C@H]2Cc3nc(N)ncc3C(=O)N2)n1 [Compound 87, (R)-2-Amino-7-[2-(6-ethoxy-pyrazin-2-yl)-4-fluoro-phenyl]-7,8-dihydro-6H-pyrido[4,3-d]pyrimidin-5-one] |
| < 10 µM | – | COc1cncc(-c2scnc2[C@H]2Cc3nc(N)nc(C)c3C(=O)N2)n1 [Compound 88, (R)-2-Amino-7-[5-(6-methoxy-pyrazin-2-yl)-thiazol-4-yl]-4-methyl-7,8-dihydro-6H-pyrido[4,3-d]pyrimidin-5-one] |
| – | < 10 µM | Cc1nc(N)nc2c1C(=O)NC(c1ccc(F)cc1-c1ccccc1C(F)(F)F)C2 (centres unmarked) [Compound 89, 2-Amino-7-(5-fluoro-2′-trifluoromethyl-biphenyl-2-yl)-4-methyl-7,8-dihydro-6H-pyrido[4,3-d]pyrimidin-5-one] |
| – | > 10 µM | Cc1nc(N)nc2c1C(=O)NC(c1ccc(F)cc1-c1ccncc1)C2 (centres unmarked) [Compound 90, 2-Amino-7-(4-fluoro-2-pyridin-4-yl-phenyl)-4-methyl-7,8-dihydro-6H-pyrido[4,3-d]pyrimidin-5-one] |
| – | > 10 µM | COc1ccc(-c2cc(F)ccc2C2Cc3nc(N)nc(C)c3C(=O)N2)cc1F (centres unmarked) [Compound 91, 2-Amino-7-(5,3′-difluoro-4′-methoxy-biphenyl-2-yl)-4-methyl-7,8-dihydro-6H-pyrido[4,3-d]pyrimidin-5-one] |
| – | > 10 µM | Cc1nc(N)nc2c1C(=O)NC(c1ccccc1)C2 (centres unmarked) [Compound 92, 2-Amino-4-methyl-7-phenyl-7,8-dihydro-6H-pyrido[4,3-d]pyrimidin-5-one] |
| – | < 10 µM | COc1cncc(-c2cc(F)ccc2C2Cc3nc(N)nc(C)c3C(=O)N2CCN)n1 (centres unmarked) [Compound 93, 2-Amino-6-(2-amino-ethyl)-7-[4-fluoro-2-(6-methoxy-pyrazin-2-yl)-phenyl]-4-methyl-7,8-dihydro-6H-pyrido[4,3-d]pyrimidin-5-one] |
| – | < 10 µM | COc1nc(-c2cc(F)ccc2[C@H]2Cc3nc(N)nc(C)c3C(=O)N2)cs1 [Compound 95, (R)-2-Amino-7-[4-fluoro-2-(2-methoxy-thiazol-4-yl)-phenyl]-4-methyl-7,8-dihydro-6H-pyrido[4,3-d]pyrimidin-5-one] |
| – | < 10 µM | COc1cccc(-c2cc(F)ccc2[C@H]2Cc3nc(N)ncc3C(=O)N2)n1 [Compound 96, (R)-2-Amino-7-[4-fluoro-2-(6-methoxy-pyridin-2-yl)-phenyl]-7,8-dihydro-6H-pyrido[4,3-d]pyrimidin-5-one] |
| – | < 10 µM | COc1nc(-c2cc(F)ccc2[C@H]2Cc3nc(N)ncc3C(=O)N2)cnc1N [Compound 97, (R)-2-Amino-7-[2-(5-amino-6-methoxy-pyrazin-2-yl)-4-fluoro-ohenyl]-7,8-dihydro-6H-pyrido[4,3-d]pyrimidin-5-one] |
| – | < 10 µM | Nc1ncc2c(n1)C[C@H](c1ccc(F)cc1)NC2=O [Compound 98, (R)-2-Amino-7-(4-fluoro-phenyl)-7,8-dihydro-6H-pyrido[4,3-d]pyrimidin-5-one] |
| – | < 10 µM | COc1nc(-c2cc(F)ccc2C2Cc3nc(N)nc(C)c3C(=O)N2)cnc1N (centres unmarked) [Compound 99, 2-Amino-7-[2-(5-amino-6-methoxy-pyrazin-2-yl)-4-fluoro-phenyl]-4-methyl-7,8-dihydro-6H-pyrido[4,3-d]pyrimidin-5-one] |
| – | > 10 µM | COc1nc(-c2cc(F)ccc2[C@@H]2Cc3nc(N)nc(C)c3C(=O)N2)cnc1N [Compound 100, (S)-2-Amino-7-[2-(5-amino-6-methoxy-pyrazin-2-yl)-4-fluoro-phenyl]-4-methyl-7,8-dihydro-6H-pyrido[4,3-d]pyrimidin-5-one] |
| – | < 10 µM | COc1nc(-c2cc(F)ccc2[C@H]2Cc3nc(N)nc(C)c3C(=O)N2)cnc1N [Compound 101, (R)-2-Amino-7-[2-(5-amino-6-methoxy-pyrazin-2-yl)-4-fluoro-phenyl]-4-methyl-7,8-dihydro-6H-pyrido[4,3-d]pyrimidin-5-one] |
| – | < 10 µM | Cc1nc(N)nc2c1C(=O)N[C@@H](c1ccc(F)cc1)C2 [Compound 102, (R)-2-Amino-7-(4-fluoro-phenyl)-4-methyl-7,8-dihydro-6H-pyrido[4,3-d]pyrimidin-5-one] |
| – | < 10 µM | Cc1nc(N)nc2c1C(=O)N[C@@H](c1ccccc1)C2 [Compound 103, (R)-2-Amino-4-methyl-7-phenyl-7,8-dihydro-6H-pyrido[4,3-d]pyrimidin-5-one] |
| – | < 10 µM | COc1nc(-c2ccccc2[C@H]2Cc3nc(N)nc(C)c3C(=O)N2)cnc1N [Compound 104, (R)-2-Amino-7-[2-(5-amino-6-methoxy-pyrazin-2-yl)-phenyl]-4-methyl-7,8-dihydro-6H-pyrido[4,3-d]pyrimidin-5-one] |
| – | < 10 µM | C=CCN1C(=O)c2c(C)nc(N)nc2C[C@@H]1c1ccc(F)cc1-c1cnc(N)c(OC)n1 [Compound 105, (R)-6-Allyl-2-amino-7-[2-(5-amino-6-methoxy-pyrazin-2-yl)-4-fluoro-phenyl]-4-methyl-7,8-dihydro-6H-pyndo[4,3-d]pyrimidin-5-one] |
| – | < 10 µM | CCN1C(=O)c2c(C)nc(N)nc2C[C@@H]1c1ccc(F)cc1-c1cccc(OC)n1 [Compound 106, (R)-2-Amino-6-ethyl-7-[4-fluoro-2-(6-methoxy-pyridin-2-yl)-phenyl]-4-methyl-7,8-dihydro-6H-pyrido[4,3-d]pyrimidin-5-one] |
| – | < 10 µM | CCN1C(=O)c2c(C)nc(N)nc2C[C@@H]1c1ccc(F)cc1-c1cccnc1OC [Compound 107, (R)-2-Amino-6-ethyl-7-[4-fluoro-2-(2-methoxy-pyridin-3-yl)-phenyl]-4-methyl-7,8-dihydro-6H-pyrido[4,3-d]pyrimidin-5-one] |
| – | < 10 µM | CCN1C(=O)c2c(C)nc(N)nc2C[C@@H]1c1ccc(F)cc1-c1cncc(OC)n1 [Compound 108, (R)-2-Amino-6-ethyl-7-[4-fluoro-2-(6-methoxy-pyrazin-2-yl)-phenyl]-4-methyl-7,8-dihydrp-6H-pyrido[4,3-d]pyrimidin-5-one] |
